Assay results taken from the supplement of paper PMC10307832.

Key:
Test in all cases: relative viability (nuclei count vs DMSO), 5 days (fraction); higher = more cells survive
Bosutinib + Bortezomib = compound: COc1cc(Nc2c(C#N)cnc3cc(OCCCN4CCN(C)CC4)c(OC)cc23)c(Cl)cc1Cl [Bosutinib] + CC(C)C[C@H](NC(=O)[C@H](Cc1ccccc1)NC(=O)c1cnccn1)B(O)O [Bortezomib] (partner 0.002 µM)
In short: (§1)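 Each reported value is a median over duplicate plates. It expresses relative viability: treated-well nuclei count divided by vehicle-well nuclei count. Lung cancer cell lines in 1536-well plates were dosed by pin tool a day after seeding, alone with one drug or with a fixed anchor-drug dose plus five library-drug doses (not always all listed) in √10 steps, and nuclei were counted after 5 days.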

Bosutinib + Tozasertib = compound: COc1cc(Nc2c(C#N)cnc3cc(OCCCN4CCN(C)CC4)c(OC)cc23)c(Cl)cc1Cl [Bosutinib] + Cc1cc(Nc2cc(N3CCN(C)CC3)nc(Sc3ccc(NC(=O)C4CC4)cc3)n2)n[nH]1 [Tozasertib] (partner 0.1 µM)
In short: as §1

Bosutinib + OSI-027 = compound: COc1cc(Nc2c(C#N)cnc3cc(OCCCN4CCN(C)CC4)c(OC)cc23)c(Cl)cc1Cl [Bosutinib] + COc1cccc2cc(-c3nc([C@H]4CC[C@H](C(=O)O)CC4)n4ncnc(N)c34)[nH]c12 [OSI-027] (partner 0.5 µM)
In short: as §1

Bosutinib + Pemetrexed = compound: COc1cc(Nc2c(C#N)cnc3cc(OCCCN4CCN(C)CC4)c(OC)cc23)c(Cl)cc1Cl [Bosutinib] + Nc1nc2[nH]cc(CCc3ccc(C(=O)N[C@@H](CCC(=O)O)C(=O)O)cc3)c2c(=O)[nH]1 [Pemetrexed] (partner 0.2 µM)
In short: as §1

Bosutinib + Palbociclib = compound: COc1cc(Nc2c(C#N)cnc3cc(OCCCN4CCN(C)CC4)c(OC)cc23)c(Cl)cc1Cl [Bosutinib] + CC(=O)c1c(C)c2cnc(Nc3ccc(N4CCNCC4)cn3)nc2n(C2CCCC2)c1=O [Palbociclib] (partner 0.5 µM)
In short: as §1

Cell Line	relative viability (Bosutinib + Bortezomib; first compound 0.01 µM)	relative viability (Bosutinib + Bortezomib; first compound 0.03162 µM)	relative viability (Bosutinib + Bortezomib; first compound 0.1 µM)	relative viability (Bosutinib + Bortezomib; first compound 1 µM)	relative viability (Bosutinib + Tozasertib; first compound 0.01 µM)	relative viability (Bosutinib + Tozasertib; first compound 0.03162 µM)	relative viability (Bosutinib + Tozasertib; first compound 0.1 µM)	relative viability (Bosutinib + Tozasertib; first compound 1 µM)	relative viability (Bosutinib + OSI-027; first compound 0.01 µM)	relative viability (Bosutinib + OSI-027; first compound 0.03162 µM)	relative viability (Bosutinib + OSI-027; first compound 0.1 µM)	relative viability (Bosutinib + OSI-027; first compound 1 µM)	relative viability (Bosutinib + Pemetrexed; first compound 0.01 µM)	relative viability (Bosutinib + Pemetrexed; first compound 0.03162 µM)	relative viability (Bosutinib + Pemetrexed; first compound 0.1 µM)	relative viability (Bosutinib + Pemetrexed; first compound 1 µM)	relative viability (Bosutinib + Palbociclib; first compound 0.01 µM)	relative viability (Bosutinib + Palbociclib; first compound 0.03162 µM)	relative viability (Bosutinib + Palbociclib; first compound 0.1 µM)	relative viability (Bosutinib + Palbociclib; first compound 1 µM)
LC-2-ad	1.05	0.98	1.02	1.14	0.469	0.401	0.506	0.482	0.878	0.917	0.806	0.847	0.266	0.306	0.287	0.27	0.498	0.507	0.522	0.478
HCC-827	1.03	1	1.03	0.928	0.406	0.442	0.436	0.166	0.784	0.828	0.872	0.574	0.248	0.282	0.273	0.231	0.439	0.473	0.469	0.196
SK-LU-1	1.15	1.21	1.04	0.922	0.305	0.289	0.341	0.283	0.335	0.362	0.331	0.222	1.02	0.899	0.982	0.693	0.399	0.436	0.397	0.294
COR-L 105	0.778	0.9	0.705	0.446	0.344	0.371	0.325	0.308	0.623	0.669	0.698	0.479	1.22	1.1	0.979	0.777	0.401	0.385	0.443	0.412
LOU-NH91	0.469	0.487	0.514	0.578	0.64	0.645	0.607	0.538	0.742	0.707	0.728	0.51	0.394	0.395	0.378	0.4	0.529	0.541	0.541	0.563
NCI-H661	1.05	0.802	0.733	0.446	0.34	0.362	0.385	0.425	0.682	0.804	0.744	0.56	0.919	0.908	0.952	0.741	0.392	0.398	0.434	0.363
LU99A	1.16	1.17	1.33	0.938	0.275	0.276	0.291	0.311	0.313	0.332	0.32	0.343	0.2	0.208	0.193	0.182	0.45	0.409	0.44	0.421
NCI-H1650	0.215	0.204	0.214	0.279	0.344	0.407	0.36	0.295	0.734	0.6	0.444	0.41	0.304	0.366	0.404	0.301	0.343	0.315	0.304	0.188
SW 1573	1.05	1.06	0.917	1.02	0.24	0.166	0.119	0.202	0.695	0.67	0.656	0.612	0.796	0.791	0.911	0.838	0.418	0.419	0.365	0.4
HOP-62	0.839	0.755	0.548	0.904	0.394	0.411	0.35	0.381	0.801	0.848	0.942	0.875	0.297	0.414	0.317	0.317	0.378	0.487	0.473	0.447
UMC-11	0.683	0.778	0.718	0.666	0.202	0.191	0.189	0.214	0.48	0.478	0.423	0.402	0.795	0.755	0.807	0.707	0.366	0.344	0.33	0.279
LCLC-103H	1.03	1.13	1.13	0.936	0.486	0.497	0.48	0.484	0.458	0.438	0.417	0.496	0.442	0.516	0.5	0.449	0.497	0.498	0.452	0.491
NCI-H1734	0.948	0.951	0.827	0.879	0.245	0.242	0.245	0.248	0.584	0.609	0.684	0.538	0.401	0.392	0.445	0.377	0.334	0.367	0.365	0.299
EKVX	1.18	1.05	0.982	0.713	0.373	0.379	0.355	0.236	0.79	0.764	0.654	0.55	0.403	0.406	0.381	0.361	0.39	0.367	0.373	0.314
HARA	1.15	1.13	1.1	1.18	0.119	0.149	0.104	0.125	0.497	0.512	0.503	0.344	0.237	0.27	0.244	0.264	0.339	0.293	0.243	0.171
EMC-BAC-2	1.03	0.943	1.07	1.06	0.287	0.291	0.311	0.282	0.388	0.383	0.385	0.37	0.426	0.444	0.446	0.448	0.519	0.5	0.508	0.533

Cell Line	relative viability (Bosutinib + Bortezomib; first compound 0.01 µM)	relative viability (Bosutinib + Bortezomib; first compound 0.03162 µM)	relative viability (Bosutinib + Bortezomib; first compound 0.1 µM)	relative viability (Bosutinib + Bortezomib; first compound 1 µM)	relative viability (Bosutinib + Tozasertib; first compound 0.01 µM)	relative viability (Bosutinib + Tozasertib; first compound 0.03162 µM)	relative viability (Bosutinib + Tozasertib; first compound 0.1 µM)	relative viability (Bosutinib + Tozasertib; first compound 1 µM)	relative viability (Bosutinib + OSI-027; first compound 0.01 µM)	relative viability (Bosutinib + OSI-027; first compound 0.03162 µM)	relative viability (Bosutinib + OSI-027; first compound 0.1 µM)	relative viability (Bosutinib + OSI-027; first compound 1 µM)	relative viability (Bosutinib + Pemetrexed; first compound 0.01 µM)	relative viability (Bosutinib + Pemetrexed; first compound 0.03162 µM)	relative viability (Bosutinib + Pemetrexed; first compound 0.1 µM)	relative viability (Bosutinib + Pemetrexed; first compound 1 µM)	relative viability (Bosutinib + Palbociclib; first compound 0.01 µM)	relative viability (Bosutinib + Palbociclib; first compound 0.03162 µM)	relative viability (Bosutinib + Palbociclib; first compound 0.1 µM)	relative viability (Bosutinib + Palbociclib; first compound 1 µM)
PC-14	0.871	0.922	0.808	0.276	0.581	0.501	0.473	0.208	0.961	0.688	0.773	0.192	0.134	0.135	0.13	0.145	0.566	0.482	0.32	0.0932
NCI-H520	0.771	0.419	0.52	0.396	0.407	0.446	0.39	0.347	0.293	0.257	0.235	0.196	0.661	0.666	0.627	0.605	0.206	0.227	0.208	0.169
NCI-H1755	0.941	1.07	1.03	0.894	0.585	0.736	0.605	0.5	0.786	0.853	0.803	0.663	0.405	0.488	0.468	0.45	0.435	0.456	0.433	0.469
NCI-H2087	0.809	1.02	0.876	1.03	0.293	0.227	0.222	0.271	0.685	0.701	0.727	0.727	0.705	0.626	0.741	0.631	0.247	0.263	0.218	0.276
NCI-H2023	0.945	1.01	1.06	0.813	0.295	0.462	0.399	0.233	0.477	0.429	0.377	0.362	0.218	0.263	0.23	0.223	0.373	0.368	0.387	0.297
CAL-12T	0.888	1.15	1.18	1.01	0.32	0.316	0.322	0.318	0.735	0.637	0.803	0.565	1.09	1.26	1.29	1.18	0.488	0.493	0.396	0.117
NCI-H2085	0.982	0.969	1.02	1.04	0.782	0.692	0.765	0.738	0.741	0.781	0.726	0.462	0.869	0.863	0.87	0.736	0.465	0.442	0.469	0.517
NCI-H650	0.875	0.854	0.858	0.962	0.74	0.772	0.721	0.801	0.634	0.502	0.588	0.628	0.893	0.846	0.972	0.953	0.398	0.325	0.332	0.406
LCLC-97TM1	0.567	0.937	0.894	0.572	0.461	0.267	0.244	0.362	0.545	0.609	0.548	0.56	0.18	0.181	0.211	0.228	0.224	0.245	0.256	0.2
NCI-H2126	1.06	1.1	1.07	1.11	0.823	0.811	0.828	0.763	0.678	0.784	0.753	0.688	0.659	0.645	0.694	0.658	0.324	0.322	0.351	0.359
201T	1.16	1.05	1.14	1.05	0.92	0.913	0.951	0.713	0.874	0.712	0.725	0.633	0.283	0.302	0.324	0.369	0.355	0.345	0.35	0.338
NCI-H1915	0.942	0.932	1.02	1.01	0.438	0.449	0.429	0.419	0.646	0.671	0.71	0.669	0.461	0.504	0.533	0.46	0.521	0.513	0.544	0.56
BEN	0.726	0.986	0.923	0.765	0.499	0.439	0.48	0.539	0.318	0.313	0.294	0.261	0.641	0.772	0.746	0.576	0.449	0.444	0.493	0.447
NCI-H2347	1.12	1.3	1.09	0.923	0.599	0.571	0.638	0.514	0.347	0.436	0.436	0.385	0.434	0.469	0.462	0.421	0.499	0.425	0.432	0.453
H3255	0.659	0.774	0.85	0.493	0.696	0.645	0.719	0.326	0.558	0.653	0.642	0.412	0.555	0.596	0.621	0.446	0.322	0.306	0.323	0.319
